Data set [1] is described as follows: Dilution study with D5W. The data set is classed as physicochemical. To be noted: 30% CAPTISOL solution.
Data set [2] relates to Lung_H2122. Briefly: Cell proliferation assay (ATPlite). To be noted: 72 hours, 0.5% fetal bovine serum. Format: cell-based. The procedure:
(§1) A representative number of compounds were assayed against several different cell lines using the cell proliferation assay:
(§2) Cell Proliferation Assay:
(§3) Cancer cell lines were plated at 5,000 to 10,000 per well in 96-well flatted bottomed plates with various concentration of compounds. The cells were incubated with compounds for 72 hours in the presence of 0.5% of fetal bovine serum. Growth inhibition was accessed by adenosine triphosphate (ATP) content assay using Perkin Elmer ATPlite kit. ATPlite is an ATP monitoring system based on firefly luciferase. Briefly, 25 μl of mammalian cell lysis solution was added to 50 μl of phenol red-free culture medium per well to lyse the cells and stabilize the ATP. 25 μl of substrate solution was then added to the well and subsequently the luminescence was measured.

Data set [3] deals with Lung_H1975. Briefly: Cell proliferation assay (ATPlite). Format: cell-based. To be noted: 72 hours, 0.5% fetal bovine serum. The procedure: as §1, §2, §3
Data set [4] relates to Lung_H460. Briefly: Cell proliferation assay (ATPlite). The data set is classed as cell-based. As to conditions: 72 hours, 0.5% fetal bovine serum. The procedure: as §1, §2, §3
In general terms: ATP-based viability assays read luminescence as a measure of living cells.

Data set [5] has as its system Pancreas_Capan1. Briefly: Cell proliferation assay (ATPlite). The data set is classed as cell-based. As to conditions: 72 hours, 0.5% fetal bovine serum. The procedure:
as §1, §2, §3

The test system of data set [6] is Pancreas_BxPC3. Briefly: Cell proliferation assay (ATPlite). Format: cell-based. To be noted: 72 hours, 0.5% fetal bovine serum. The procedure:
as §1, §2, §3

Data set [7] concerns Lung_H358. Briefly: Cell proliferation assay (ATPlite). The data set is classed as cell-based. To be noted: 72 hours, 0.5% fetal bovine serum. As for the experimental part: as §1, §2, §3
The test system of data set [8] is Prostate_PC3. Briefly: Cell proliferation assay (ATPlite). Format: cell-based. As to conditions: 72 hours, 0.5% fetal bovine serum. As for the experimental part:
as §1, §2, §3

Data set [9] deals with T1, human EGFR (Homo sapiens, UniProt P00533).
T1 construct: human EGFR (His672-Ala1210); purchased Cell Signaling Technologies; host or cells: baculovirus expression system
Briefly: HTScan EGF Receptor Kinase assay. The data set is classed as biochemical. The procedure: The ability of compounds to inhibit receptor kinase (EGFR) activity was assayed using HTScan™ EGF Receptor Kinase Assay Kits (Cell Signaling Technologies, Danvers, Mass.). […] The protein was purified by one-step affinity chromatography using glutathione-agarose.
Immediately transfer enzyme from −80° C. to ice. Allowed enzyme to thaw on ice. […] Returned immediately to ice. […] Incubated reaction plate at room temperature for 30 minutes. […] Added 100 μl/well primary antibody. Incubated at room temperature for 60 minutes. […] Added 100 μl/well diluted antibody. Incubated at room temperature for 30 minutes. […] Incubated at room temperature for 5 minutes.

In data set [10] the test system is T2, HDAC.
T2 construct: rows headed: HDAC IC50
Briefly: HDAC fluorimetric enzyme assay (HeLa nuclear extract). The data set is classed as biochemical. As to conditions: FIG. 1.
Description: HDAC inhibitors were screened using an HDAC fluorimetric assay kit (AK-500, Biomol, Plymouth Meeting, Pa.). […] Fluorescence was measured on a WALLAC Victor 2 plate reader and reported as relative fluorescence units (RFU). Data were plotted using GraphPad Prism (v4.0a) and IC50's calculated using a sigmoidal dose response curve fitting algorithm. Each assay was setup as follows: Defrosted all kit components and kept on ice until use. […] Prepared dilutions of Trichostatin A (TSA, positive control) and tested compounds in assay buffer (5× of final concentration). Diluted Fluor de Lys™ Substrate in assay buffer to 100 uM (50 fold=2× final). Diluted Fluor de Lys™ developer concentrate 20-fold (e.g. 50 μl plus 950 μl Assay Buffer) in cold assay buffer. Second, diluted the 0.2 mM Trichostatin A 100-fold in the 1× Developer (e.g. 10 μl in 1 ml; final Trichostatin A concentration in the 1× Developer=2 μM; final concentration after addition to HDAC/Substrate reaction=1 μM). Added Assay buffer, diluted trichostatin A or test inhibitor to appropriate wells of the microtiter plate. Added diluted HeLa extract or other HDAC sample to all wells except for negative controls.

In data set [11] the test system is Colon_HCT116. Briefly: Cell proliferation assay (ATPlite). Format: cell-based. As to conditions: 72 hours, 0.5% fetal bovine serum. As for the experimental part:
as §1, §2, §3

Data set [12] relates to Pancreas_MiaPaCa2. Briefly: Cell proliferation assay (ATPlite). The data set is classed as cell-based. To be noted: 72 hours, 0.5% fetal bovine serum. The procedure: as §1, §2, §3
Data set [13] deals with Pancreas_CFPAC. Briefly: Cell proliferation assay (ATPlite). The data set is classed as cell-based. To be noted: 72 hours, 0.5% fetal bovine serum. As for the experimental part:
as §1, §2, §3

In data set [14] the test system is Pancreas_HPAC. Briefly: Cell proliferation assay (ATPlite). The data set is classed as cell-based. To be noted: 72 hours, 0.5% fetal bovine serum. The procedure: as §1, §2, §3
For data set [15], the system named is Pancreas_PANC1. Briefly: Cell proliferation assay (ATPlite). As to conditions: 72 hours, 0.5% fetal bovine serum. Format: cell-based. As for the experimental part:
as §1, §2, §3

For data set [16], the system named is A549 NSCLC. Briefly: A549 NSCLC Xenograft model. Format: in vivo, mice. As to conditions: compared with vehicle or control. The procedure: A representative protocol for the in vivo experiment is as followed:
1-10×10^6 human cancer cells were implanted subcutaneously to the athymic (nu/nu) mice. When the tumors reached about 100 mm^3 in volume, the mice were treated with the compound by tail vein infusion. Routinely 5 groups (8-12 mice per group) are needed for a typical efficacy study, including one negative control, one positive control, and three testing groups for 3 dose levels of the same compound. Usually a 7-7-5 (on-off-on) regimen was used for one typical study. The tumor size was measured with an electronic caliper and body weight measured with a scale twice weekly. The tumors were removed from euthanized mice at the end of the study. One half of each tumor was frozen in dry ice and stored at −80° C. for PK or Western blot analysis. The other half was fixed with formalin. The fixed tissues were processed, embedded in paraffin and sectioned for immunohistochemistry staining. Protocol for Radioisotope assay for HER2

The test system of data set [17] is Lung_H1703. Briefly: Cell proliferation assay (ATPlite). The data set is classed as cell-based. As to conditions: 72 hours, 0.5% fetal bovine serum. The procedure: as §1, §2, §3
Data set [18] relates to Lung_HCC827. Briefly: Cell proliferation assay (ATPlite). Format: cell-based. To be noted: 72 hours, 0.5% fetal bovine serum.
Description: Cancer cell lines were plated at 5,000 to 10,000 per well in 96-well flatted bottomed plates with various concentration of compounds. […] Growth inhibition was accessed by adenosine triphosphate (ATP) content assay using Perkin Elmer ATPlite kit. […] Briefly, 25 μl of mammalian cell lysis solution was added to 50 μl of phenol red-free culture medium per well to lyse the cells and stabilize the ATP. 25 μl of substrate solution was then added to the well and subsequently the luminescence was measured.

Twelve compounds from patent US8119616B2, “Formulation of quinazoline based EGFR inhibitors containing a zinc binding moiety” (Curis, Inc., priority 2007, dated 2012) can be followed below.

T1 sequence (P00533 672-1210): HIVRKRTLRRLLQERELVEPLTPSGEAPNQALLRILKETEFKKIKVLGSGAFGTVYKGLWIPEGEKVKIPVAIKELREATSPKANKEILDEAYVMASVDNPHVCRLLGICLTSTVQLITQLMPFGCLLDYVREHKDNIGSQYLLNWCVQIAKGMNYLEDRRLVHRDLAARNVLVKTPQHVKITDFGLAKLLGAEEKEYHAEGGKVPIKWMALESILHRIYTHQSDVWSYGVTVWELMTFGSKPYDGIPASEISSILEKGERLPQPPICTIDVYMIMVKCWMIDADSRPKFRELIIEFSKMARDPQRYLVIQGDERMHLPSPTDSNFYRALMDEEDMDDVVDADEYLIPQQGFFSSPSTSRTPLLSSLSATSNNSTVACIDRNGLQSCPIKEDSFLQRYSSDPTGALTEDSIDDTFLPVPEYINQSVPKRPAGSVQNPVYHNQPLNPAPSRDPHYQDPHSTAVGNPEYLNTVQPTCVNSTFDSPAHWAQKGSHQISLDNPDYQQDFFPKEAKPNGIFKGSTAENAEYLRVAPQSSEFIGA

Regarding Tartaric Acid, the “Dilution with D5W” value in data set [1] is above 50x.

One may read the IC50 as the concentration that gives 50% inhibition. A high value points to weaker potency. `COc1cc2ncnc(Nc3ccc(F)c(Cl)c3)c2cc1OCCCCCCC(=O)NO` [Compound 6, 7-(4-(3-Chloro-4-fluorophenylamino)-7-methoxyquinazolin-6-yloxy)-N-hydroxyheptanamide]: the IC50 lay in the range of 100 to 1000 nM in data set [2]; 100 to 1000 nM in data set [3]; 100 to 1000 nM in data set [4]; 1000 to 10000 nM in data set [5]; 100 to 1000 nM in [6]; 100 to 1000 nM in [7]. In data set [8], this compound displayed an IC50 of 100 to 1000 nM. The “activity in EFGR enzyme assay compared with erlotinib and SAHA” value in data set [9] (FIG. 1) was “more active than erlotinib and SAHA”. Moreover, the “activity in HDAC enzyme assay compared with erlotinib and SAHA” value in [10] was “more active than erlotinib and SAHA”.

For the compound `O=C(CCCCCCOc1ccc2ncnc(Nc3ccc(F)c(Cl)c3)c2c1)NO` [Compound 18, 7-(4-(3-chloro-4-fluorophenylamino)quinazolin-6-yloxy)-N-hydroxyheptanamide], the IC50 in data set [11] fell in the range of 100 to 1000 nM; in [12], 100 to 1000 nM; in data set [13], 100 to 1000 nM; in data set [14] it was 1000 to 10000 nM; in [15], 100 to 1000 nM.

Consider `COc1cc2ncnc(N[C@H](C)c3ccccc3)c2cc1OCCCCCCC(=O)NO` [Compound 79, (R)—N-hydroxy-7-(7-methoxy-4-(1-phenylethylamino)quinazolin-6-yloxy)heptanamide], for which the IC50 in [12] is 1000 to 10000 nM; in data set [13] it was 1000 to 10000 nM; in [14] it was above 10000 nM; in data set [15], 1000 to 10000 nM.

Turning to `COc1cc2ncnc(Nc3ccc(F)c(Cl)c3)c2cc1NC(=O)CCCCCCC(=O)NO` [Compound 40, N^1-(4-(3-chloro-4-fluorophenylamino)-7-methoxyquinazolin-6-yl)-N^8-hydroxyoctanediamide], the IC50 in data set [12], in data set [13], in data set [14] and in data set [15] was 1000 to 10000 nM each time.

Take `C#Cc1cccc(Nc2ncnc3cc(OCCOC)c(OCCOC)cc23)c1` [Erlotinib, reference compound]: in data set [16], the “effect on tumor size / tumor growth” value is on record as “did not significantly affect tumor size”.

On to `COc1cc2ncnc(NCc3ccccc3)c2cc1OCCCCCCC(=O)NO` [Compound 85, 7-(4-(Benzylamino)-7-methoxyquinazolin-6-yloxy)-N-hydroxyheptanamide], for which the IC50 fell in the range of 100 to 1000 nM in data set [11]; 1000 to 10000 nM in data set [12]; 100 to 1000 nM in data set [6]; 1000 to 10000 nM in data set [14]; 1000 to 10000 nM in [15].

`COc1cc2ncnc(Nc3ccc(F)c(Cl)c3)c2cc1OCCOc1ccc(C(=O)NO)cc1` [Compound 92, 4-(2-(4-(3-chloro-4-fluorophenylamino)-7-methoxyquinazolin-6-yloxy)ethoxy)-N-hydroxybenzamide] displayed an IC50 in data set [9] below 100 nM.

For the compound `COCCOc1cc2ncnc(Nc3ccc(F)c(Cl)c3)c2cc1NC(=O)CCCCCCC(=O)NO` [Compound 70, N^1-(4-(3-chloro-4-fluorophenylamino)-7-(2-methoxyethoxy)quinazolin-6-yl)-N^8-hydroxyoctanediamide], the half-inhibitory concentration (IC50) in data set [12] is 1000 to 10000 nM; in data set [13] it was 1000 to 10000 nM; in [14], above 10000 nM; in data set [15] it was 1000 to 10000 nM; in [9], below 100 nM.

With `COc1cc2ncnc(N[C@H](C)c3ccccc3)c2cc1OCCCCCC(=O)NO` [Compound 77, (R)—N-hydroxy-6-(7-methoxy-4-(1-phenylethylamino)quinazolin-6-yloxy)-hexanamide], the IC50 in data set [12] was 100 to 1000 nM; in [13], 1000 to 10000 nM; in data set [14], above 10000 nM; in [15] it was above 10000 nM.

`C#Cc1cccc(Nc2ncnc3cc(OC)c(NC(=O)CCCCCCC(=O)NO)cc23)c1` [Compound 44, N^1-(4-(3-ethynylphenylamino)-7-methoxyquinazolin-6-yl)-N^8-hydroxyoctanediamide]: the IC50 in [2], in data set [3], in [4], in data set [5], in data set [17] and in data set [6] was 1000 to 10000 nM each time. Besides, the IC50 in data set [7] fell in the range of 1000 to 10000 nM; in data set [18], 100 to 1000 nM.

`COc1cc2ncnc(Nc3ccc(F)c(Cl)c3)c2cc1OCCOc1ccc(/C=C/C(=O)NO)cc1` [Compound 66, (E)-3-(4-(2-(4-(3-chloro-4-fluorophenylamino)-7-methoxyquinazolin-6-yloxy)ethoxy)phenyl)-N-hydroxyacrylamide]: the IC50 in data set [12], in [6], in [14] and in data set [15] was 1000 to 10000 nM throughout.
